Results on 92 compounds are retold here after a melting point compilation (Tetko et al.; mined from patent text by program, amines drawn as free bases though some values may be those of a salt).

`CC=Cc1cc(C(=O)c2ccccc2F)c(Cl)c(Cl)c1O` showed a melting point of 83 to 84 °C.

Take `CCCCCCCCCCCCOc1ccc([N+](=O)[O-])cc1`: the melting point was in the range of 51.5 to 53 °C.

As to `CCOC(=O)C1(C(=O)OCC)CCC2(CC1)NCCc1cc(OC)ccc12`, the melting point is 81 to 83 °C.

With `C=CCNc1ncnc2c1ncn2Cc1c(F)cccc1Cl`, the melting point was 163 to 164 °C.

For the compound `CN1C(=S)C(NC(=O)CCC2CCCCC2)N=C(c2ccccc2)c2ccccc21` (configuration not stated), the melting point lay in the range of 219 to 221 °C.

`COC(=O)c1cc2c(cc(C=O)c3ccccc32)s1` showed a melting point of 196 to 198 °C.

`CCc1cc(C(=O)O)c(O)cc1C` gave a melting point of 152 to 154 °C.

The compound `COc1ccc2c(c1)S(=O)(=O)C(C(=O)NCCCCCC(=O)O)C(=O)N2C` (configuration not stated) showed a melting point of 110 to 112 °C.

In turn, `NNC(=O)c1cc2c(Oc3ccc(C(F)(F)F)cc3)cncc2s1` displayed a melting point of 146 to 147 °C.

As for `O=[N+]([O-])c1cc(CCCl)ccc1O`, the melting point was 53 to 55 °C.

As for `N=C(NCc1cccc(F)c1)N[N+](=O)[O-]`, the melting point was 177 to 179 °C.

`CN1CCN(c2nc3sc4c(NCc5cccnc5)ncnc4c3c3c2CCC(C)(C)C3)CC1` returned a melting point of 210 to 212 °C.

Consider `COc1cc(C2CCN(CC(N)=O)CC2)ccc1Nc1ncc2ccc(-c3ccccc3N(C)S(C)(=O)=O)n2n1`, for which the melting point was 103 to 112 °C.

Compound `CC1(C)CCC(C)(C)c2cc3cc(-c4ccc(C(=O)O)c(Cl)c4)ccc3cc21` came in with a melting point of 213 to 215 °C.

In the case of `CC(=O)OCc1c(Br)cccc1N1CCn2c(nc3c2CCCC3)C1=O`, the melting point was in the range of 205 to 206 °C.

In turn, `CCCCCc1ccc(OCC(O)CC#CCCCC(=O)O)cc1` (configuration not stated) registered a melting point of 54 to 57 °C.

`O=C(O)[C@@H]1C[C@H]2C[C@@H](CCc3cc(O)no3)CC[C@H]2CN1` (racemic) came in with a melting point of 256 °C.

Regarding `COC(=O)C=Cc1ccc(OCc2nc(-c3ccccc3)c(C)s2)cc1`, the melting point fell in the range of 142 to 143 °C.

Consider `COC(=O)Nc1c(C(=O)O)ccc(Cl)c1Cl`, for which the melting point was 155 to 156 °C.

Compound `c1ccc2c(Cn3c(-c4ccc5c(c4)OCO5)nc4ccccc43)cccc2c1` yielded a melting point of 166 to 168 °C.

`CN(C=O)c1c2oc3ccccc3c2nn1C` had a melting point of 135 to 138 °C.

The compound `Cc1ccc(Cc2cnc(NCCCNc3ncccc3C)[nH]c2=O)cn1` came in with a melting point of 119 to 123 °C.

`O=C1N(Cc2cccnn2)c2ccccc2C12COc1cc3c(cc12)CCO3` (configuration not stated): the melting point was 81 to 82 °C.

With `Cc1ccnc2c1C(=O)c1cc([N+](=O)[O-])ccc1-2`, the melting point lay within 225 to 227 °C.

`CCCc1nc(C(N)=O)c2n1-c1ccc(Cl)cc1C(c1ccccc1Cl)=NC2` came in with a melting point of 298 to 300 °C.

Take `CN1CCC(Oc2ccc3ccc(N)nc3n2)CC1`: the melting point came out at 174 °C.

For `Cc1cccc(C(=O)Nc2c[nH]nc2C(=O)NCC(O)Cc2ccccc2)n1` (configuration not stated), the melting point was 184 to 185 °C.

For `O=c1[nH]c2cc([N+](=O)[O-])ccc2c(=O)n1S(=O)(=O)c1ccc(Cl)cc1`, the melting point lay in the range of 258 to 260 °C.

The compound `COc1ccccc1C=C1CCc2c1oc1ccc(C(=O)O)cc1c2=O` yielded a melting point of 273 to 275 °C.

Consider `CC(C)OC(=O)N1c2ccccc2Sc2cc(O)c3ccccc3c21`, for which the melting point was in the range of 205 to 206 °C.

In turn, `NNc1nc(-c2ccccc2)c2cc(Cl)ccc2n1` displayed a melting point of 172 to 173 °C.

Turning to `COc1cc2ccc([C@](O)(c3c[nH]cn3)C(C)C)cc2cc1OC`, the melting point is 156 to 157 °C.

Consider `Cc1cccc(OCCCN2CCC(OC(c3ccccc3)c3ccccc3)CC2)c1NS(C)(=O)=O`, for which the melting point amounted to 132 °C.

Compound `CCOc1cc2ncc(C#N)c(NCc3ccc(F)c(F)c3)c2cc1OCC` displayed a melting point of 167 to 169 °C.

`O=c1c2c(N3CCNCC3)cc(Cl)cc2n(Cc2ccccc2)c(=O)n1Cc1ccccc1F` returned a melting point of 98 to 109 °C.

Take `NN(CCCCO)c1nc2ccccc2o1`: the melting point lay in the range of 87 to 90 °C.

The compound `CC(C)c1ccc(N(Cc2ccc(N(C)C)cc2)C(=O)Nc2c(C(C)C)cccc2C(C)C)cc1` returned a melting point of 203 to 206 °C.

Take `FC(F)(F)c1ccc(-c2ccc(Cl)nc2)cc1`: the melting point lay within 98 to 101 °C.

For `O=[N+]([O-])c1ccccc1SC1SCC(O)C(O)C1O` (configuration not stated), the melting point came to 185 °C.

The compound `CCOC(=O)n1c2ccccc2c(=O)n1Cc1ccc([N+](=O)[O-])cc1` displayed a melting point of 123 to 124 °C.

`COC(=O)CC1COc2ccc(N)cc2C1` (configuration not stated) yielded a melting point of 104 to 106 °C.

As for `NC(=O)c1sc2ncnc(-c3cccc(NC(=O)Nc4cccnc4)c3)c2c1N`, the melting point lay in the range of 199 to 200 °C.

With `Cc1cc(NCc2ccccc2)c([N+](=O)[O-])c(=O)[nH]1`, the melting point was in the range of 246 to 247 °C.

`N#CC1CN1C(=O)CN1C(=O)c2ccccc2C1=O` (configuration not stated) gave a melting point of 126 to 128 °C.

`COC(=O)[C@H](Cc1ccc(N2C(=O)c3ccc(Br)cc3C2=O)cc1)NC(=O)OC(C)(C)C`: the melting point fell in the range of 168 to 170 °C.

Take `Cc1cccc2c(C=C(Br)Br)csc12`: the melting point lay in the range of 75 to 78 °C.

As to `c1ccc(-c2c[nH]nc2-c2ccccc2)cc1`, the melting point was 150 to 152 °C.

As to `Cc1noc(NS(=O)(=O)c2c(Cc3ccccc3)sc3ccccc23)c1Br`, the melting point was in the range of 120 to 123 °C.

Take `CC(C(=O)Cl)c1ccc2c(c1)CCc1ccccc1C2=O` (configuration not stated): the melting point was 142 °C.

With `COC(=O)C1CCN2C(=O)C(=O)c3cc(Cl)cc1c32` (configuration not stated), the melting point was 132 to 133 °C.

The compound `COc1cc2ccc(COC(C)=O)cc2cc1OC` displayed a melting point of 71 to 75 °C.

For `CCc1noc(-c2ccc(C)cc2)c1-c1ccc(S(N)(=O)=O)cc1`, the melting point stood at 191 °C.

The compound `O=C1OC(=O)[C@@H](Cl)[C@@H]1Cl` (relative stereo) came in with a melting point of 90 to 92 °C.

Turning to `CC1(C)SC(c2ccc3c(c2)CCC3)NC1C(=O)O` (configuration not stated), the melting point was 140 to 142 °C.

Take `COc1ccc(S(=O)(=O)c2cnoc2C(C)C)cc1`: the melting point was in the range of 62 to 63.5 °C.

In turn, `CN(Cc1ccccc1)CC1CNC(=O)c2cccc3[nH]cc1c23` (configuration not stated) returned a melting point of 191 to 193 °C.

As to `CC(C)Oc1nc(N)nc2c1ncn2CCC(CO)CO`, the melting point fell in the range of 112 to 114 °C.

`Nc1ncc2cc(-c3c(Cl)ccc(Cl)c3Cl)c(N)nc2n1`: the melting point lay in the range of 320 to 322 °C.

`CC(C)(C)OC(=O)N[C@@H](COC(=O)C(C)(C)C)Cc1ccccc1` had a melting point of 59 to 60 °C.

`O=C(COC(=O)Cc1ccccc1Nc1c(Cl)cccc1Cl)NCCO[N+](=O)[O-]` had a melting point of 81 to 83 °C.

On to `O=C(NCC1CCCC1)c1ccc2cc[nH]c2c1`, for which the melting point fell in the range of 148 to 150 °C.

In the case of `CC(C)(C)c1ccc2occ(N)c(=S)c2c1`, the melting point came out at 168 °C.

Regarding `CCCc1c(C(C)C)nc(C(C)C)c(C(C)O)c1-c1ccc(F)cc1` (configuration not stated), the melting point was in the range of 103 to 104 °C.

As to `COc1ccccc1C(=O)Nc1ccc(COc2ccc3c(c2)CCC(CN(C)C)C3)cc1` (configuration not stated), the melting point fell in the range of 106 to 108 °C.

The compound `COC(=O)Cc1cc(N=O)c2[nH]ccc2c1` registered a melting point of 110 to 111 °C.

Turning to `Cc1cccc(C)c1CNc1cc(C(N)=O)cc2c1nc(C)n2C`, the melting point was 272 °C.

On to `CC(CN1CCCC1)N1c2ccccc2Sc2ccc(C(=O)NCCC(C)(C)C)cc21` (racemic), for which the melting point was found to be 138 °C.

In turn, `COc1ccc2[nH]c3c([N+](=O)[O-])ccc(Cl)c3c(=O)c2c1Cl` gave a melting point of 251 to 253 °C.

In turn, `NC1(Cl)C=CN=C(Cl)N1` (configuration not stated) registered a melting point of 55 to 56 °C.

As to `CNC(=O)c1cn(-c2cc3c(=O)n(NS(C)(=O)=O)c(=O)[nH]c3cc2C(F)(F)F)cn1`, the melting point is 292 to 295 °C.

`CS(=O)c1ccc(-c2coc3ccc(-c4nnc(SCc5cccc(C(F)(F)F)c5)o4)cc23)cc1` (configuration not stated) came in with a melting point of 176 to 177 °C.

Turning to `CN1CCN(C(=O)c2cc(N)cc(C(F)(F)F)c2)CC1`, the melting point was 114 to 115 °C.

Consider `CCCCCCC(=O)c1ccc2c([N+](=O)[O-])c(O)c(O)cc2c1`, for which the melting point lay in the range of 97 to 98 °C.

`CC(C)(C)OC(=O)N1CCC(NCc2ccccc2N)CC1` gave a melting point of 79 to 81 °C.

`Clc1cc2cc[nH]c2c2cccnc12` registered a melting point of 248 to 250 °C.

For the compound `CCC(C)(C)NC(Nc1cc(C(F)(F)F)cc(C(F)(F)F)c1)=C(C#N)S(=O)(=O)c1ccc(Cl)cc1`, the melting point lay within 205 to 207 °C.

In the case of `COc1ccc(OC)c(C(=O)CC(O)C(=O)O)c1` (configuration not stated), the melting point amounted to 89 °C.

For `c1csc(-c2nc3ccc(N4CCC(N5CCCC5)CC4)nn3c2-c2ccncc2)c1`, the melting point stood at 85 °C.

For the compound `Cc1nn(-c2nnc(S)n2N)c2c1CCCC2`, the melting point is 201 to 202 °C.

In the case of `CCOc1ccc(C(=O)CC(C(=O)O)N2CCOCC2)cc1OC` (configuration not stated), the melting point worked out at 157 °C.

In turn, `CCOC(=O)c1ccc(OCCCCCCCCCCC(C(=O)CC)C(=O)CC)cc1` returned a melting point of 45 to 46 °C.

`COc1cc(CCl)ccc1OCCCCOc1ccc(CCl)cc1OC` yielded a melting point of 116 to 118 °C.

With `CC1(C)Oc2cc3nonc3cc2C(N2CCC(Br)CC2=O)C1O` (configuration not stated), the melting point lay in the range of 250 to 253 °C.

As for `C#CCn1ccc(CO)c1C#N`, the melting point worked out at 65 °C.

`FC(F)(F)c1ccc(-c2nccc(CBr)n2)cc1` displayed a melting point of 125 °C.

Take `OC1Sc2ccccc2-c2ccccc21` (configuration not stated): the melting point was in the range of 83 to 86 °C.

On to `NC(=S)c1ccc(O)cc1O`, for which the melting point is 164 to 166 °C.

In the case of `COc1cc(OCc2ccccn2)ccc1/C=C/c1cc(/C=C/c2cccc3[nH]ccc23)n[nH]1`, the melting point lay within 108 to 113 °C.

`CNC(=O)ON=C1N=C(c2ccccc2)C(C)(C)S1`: the melting point was 135 to 137 °C.

As for `O=C(Nc1cccc(C(F)(F)F)c1)c1coc2cc(Oc3cc(CO)ncn3)ccc12`, the melting point lay in the range of 181 to 182 °C.

Compound `O=C(Cc1ccccc1N1CCCC1)N1C[C@@H]2SCCC(c3ccccc3)(c3ccccc3)[C@@H]2C1` (racemic) returned a melting point of 166 °C.

Consider `O=C(O)Cc1ccccc1OCc1ccc(OCc2csc(-c3ccccc3)n2)cc1`, for which the melting point was in the range of 115 to 116 °C.
